Source: patent US5869602A, “Peptide derivatives” (Novo Nordisk A/S, priority 1995, dated 1999)
Each block holds one compound with its values, some of them ahead of it. Non-standard residues stand in square brackets, D forms with d. Residues, ends and D or L forms follow the SMILES beside them. *: point of attachment. Myristoyl = CCCCCCCCCCCCCC(=O)*; Nle = CCCC[C@H](N)C(=O)O; For = O=C*

Columns and labels:
[1] = Determination of lipophilicity relative to human insulin (k'rel) by RP-HPLC; type: physicochemical; details: pH 7.3
Experimental: The lipophilicity of peptides and peptide derivatives relative to human insulin, k'rel, was measured on a LiChrosorb RP18 (5 μm, 4×250 mm) HPLC column by isocratic elution at 40° C. using mixtures of A) 0.1M sodium phosphate buffer, pH 7.3, containing 10% acetonitrile, and B) 50% acetonitrile in water as eluents. The elution was monitored by following the UV absorption of the eluate at 214 nm. Void time, t0, was found by injecting 0.1 mM sodium nitrate. Retention time for human insulin. tinsulin, was adjusted to at least 2t0 by varying the ratio between the A and B solutions. k'rel =(tderivate -t0)/(tinsulin -t0).

rabbits = experiment: Blood glucose in rabbits pre-treated with Insulin Actrapid, after SC injection; type: in vivo
Experimental: The resulting solution was sterilized by filtration and transferred to a vial.
Blood was sampled at times: -60, 0, 15, 30, 60, 120, 180 and 240 min, and the glucose concentration determined by the hexokinase method.

[2] = LiChrosorb RP18 HPLC, isocratic elution, 40° C.

Compound: CCCCCCCCCCCCCC(=O)NCCCC[C@H](NC(=O)[C@H](Cc1ccc(O)cc1)NC(=O)[C@H](CCCC)NC(=O)[C@H](Cc1ccccc1)NC(=O)[C@H](CC(C)C)NC(=O)[C@H](CCCC)NC=O)C(=O)O [Example 1, For-Nle-Leu-Phe-Nle-Tyr-Lys(N^ε -tetradecanoyl)-OH] (For-[Nle]LF[Nle]YK(Myristoyl)-OH)
lipophilicity relative to human insulin, k'rel [1, 2]: 8.2×10^3

Compound: CCCCCCCCCCCCCC(=O)NCCCC[C@H](NC(=O)[C@H](Cc1ccc(O)cc1)NC(=O)[C@@H](NC(=O)[C@H](Cc1ccccc1)NC(=O)[C@H](Cc1ccccc1)NC(=O)[C@H](Cc1c[nH]cn1)NC(=O)[C@H](Cc1ccccc1)NC(=O)[C@@H]1CCCN1C(=O)[C@H](Cc1c[nH]cn1)NC(=O)[C@@H]1CCCN1)C(C)C)C(=O)O [Example 3] (H-PHPFHFFVYK(Myristoyl)-OH)
lipophilicity relative to human insulin, k'rel [1, 2]: 5.3×10^3

Compound: CC(C)C[C@H](NC(=O)[C@H](Cc1ccccc1)NC(=O)CNC(=O)[C@@H](C)NC(=O)[C@@H](N)Cc1ccc(O)cc1)C(=O)N[C@@H](CCCCN)C(=O)O [H-Tyr-D-Ala-Gly-Phe-Leu-Lys-OH] (HELM PEPTIDE1{Y.[dA].G.F.L.K}$$$$V2.0)
lipophilicity relative to human insulin, k'rel [1, 2]: 3.0×10^-3

Compound: Lys^30 (Nε-decanoyl) glucagon [Example 6]
blood glucose concentration (rabbits; 0 min (time of SC injection of test substance)): 51 mg glucose/100 ml
blood glucose concentration (rabbits; 15 min after SC injection): 79 mg glucose/100 ml
blood glucose concentration (rabbits; 30 min after SC injection): 93 mg glucose/100 ml
blood glucose concentration (rabbits; 60 min after SC injection): 114 mg glucose/100 ml
blood glucose concentration (rabbits; 120 min after SC injection): 112 mg glucose/100 ml
blood glucose concentration (rabbits; 180 min after SC injection): 116 mg glucose/100 ml
blood glucose concentration (rabbits; 240 min after SC injection): 110 mg glucose/100 ml
blood glucose concentration (rabbits; -60 min (time of 2 IU Insulin Actrapid, before test substance)): 94 mg glucose/100 ml
blood glucose raising effect compared with glucagon (rabbits; SC, conclusion from the table): prolonged action

More lines, now with the values ahead:

lipophilicity relative to human insulin, k'rel [1]: 2.3
Compound: CCCC[C@H](NC=O)C(=O)N[C@@H](CC(C)C)C(=O)N[C@@H](Cc1ccccc1)C(=O)N[C@@H](CCCC)C(=O)N[C@@H](Cc1ccc(O)cc1)C(=O)N[C@@H](CCCCN)C(=O)O [For-Nle-Leu-Phe-Nle-Tyr-Lys-OH] (HELM PEPTIDE1{[O=C[*:2]].[Nle].L.F.[Nle].Y.K}$$$$V2.0)

lipophilicity relative to human insulin, k'rel [1, 2]: 2.3×10^2
Compound: H-PHPFHFFVYK-OH
